{"source": "the kinase profiling compilation of Christmann-Franck et al. (2016)", "experiment_in_all_cases": "radiometric filter-binding kinase assay", "key": {"JAK2 JH1 JH2 (human)": {"molecular_target": "JAK2 JH1 JH2 (human) (UniProt O60674)"}, "SRC (human)": {"molecular_target": "SRC (human) (UniProt P12931)"}, "[1]": {"molecular_target": "STK11 CAB39 STRADA (human) (UniProt Q9Y376+Q7RTN6+Q15831)"}, "INSR (human)": {"molecular_target": "INSR (human) (UniProt P06213)"}, "CSNK1D (human)": {"molecular_target": "CSNK1D (human) (UniProt P48730)"}, "IRAK4 (human)": {"molecular_target": "IRAK4 (human) (UniProt Q9NWZ3)"}, "MAPK14 (human)": {"molecular_target": "MAPK14 (human) (UniProt Q16539)"}, "MAPK15 (human)": {"molecular_target": "MAPK15 (human) (UniProt Q8TD08)"}, "MELK (human)": {"molecular_target": "MELK (human) (UniProt Q14680)"}, "IGF1R (human)": {"molecular_target": "IGF1R (human) (UniProt P08069)"}, "TAOK1 (human)": {"molecular_target": "TAOK1 (human) (UniProt Q7L7X3)", "sequence (Q7L7X3 whole entry, looked up)": "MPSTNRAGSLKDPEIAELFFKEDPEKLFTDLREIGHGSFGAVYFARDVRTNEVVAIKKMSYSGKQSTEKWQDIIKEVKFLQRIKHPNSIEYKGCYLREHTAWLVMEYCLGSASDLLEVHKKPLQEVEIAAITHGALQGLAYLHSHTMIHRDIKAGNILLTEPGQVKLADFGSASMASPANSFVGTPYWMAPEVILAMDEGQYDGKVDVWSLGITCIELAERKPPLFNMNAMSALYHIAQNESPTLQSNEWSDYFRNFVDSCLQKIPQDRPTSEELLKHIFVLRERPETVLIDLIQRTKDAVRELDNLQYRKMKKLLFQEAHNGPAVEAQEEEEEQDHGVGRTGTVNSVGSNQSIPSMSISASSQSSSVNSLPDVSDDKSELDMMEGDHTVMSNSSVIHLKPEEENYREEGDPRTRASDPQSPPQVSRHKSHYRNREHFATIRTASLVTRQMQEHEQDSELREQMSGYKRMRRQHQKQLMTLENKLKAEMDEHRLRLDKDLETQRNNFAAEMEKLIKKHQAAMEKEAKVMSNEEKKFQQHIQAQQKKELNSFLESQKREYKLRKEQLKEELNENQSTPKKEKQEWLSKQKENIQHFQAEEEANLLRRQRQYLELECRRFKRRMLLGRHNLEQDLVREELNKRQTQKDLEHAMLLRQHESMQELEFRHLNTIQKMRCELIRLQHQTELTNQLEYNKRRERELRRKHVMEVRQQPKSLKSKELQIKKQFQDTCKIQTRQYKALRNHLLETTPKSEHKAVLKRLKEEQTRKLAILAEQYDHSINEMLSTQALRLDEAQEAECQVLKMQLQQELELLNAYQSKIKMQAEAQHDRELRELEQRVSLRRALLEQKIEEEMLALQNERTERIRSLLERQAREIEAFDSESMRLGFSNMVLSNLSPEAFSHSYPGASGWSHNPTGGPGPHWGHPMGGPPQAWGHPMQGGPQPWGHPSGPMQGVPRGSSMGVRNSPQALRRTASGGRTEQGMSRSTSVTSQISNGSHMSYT"}, "FGFR1 (human)": {"molecular_target": "FGFR1 (human) (UniProt P11362)"}, "RPS6KA3 KD1 KD2 (human)": {"molecular_target": "RPS6KA3 KD1 KD2 (human) (UniProt P51812)"}, "BRSK1 (human)": {"molecular_target": "BRSK1 (human) (UniProt Q8TDC3)"}, "NTRK1 (human)": {"molecular_target": "NTRK1 (human) (UniProt P04629)"}, "CAMKK2 (human)": {"molecular_target": "CAMKK2 (human) (UniProt Q96RR4)"}, "MARK1 (human)": {"molecular_target": "MARK1 (human) (UniProt Q9P0L2)", "sequence (Q9P0L2 whole entry, looked up)": "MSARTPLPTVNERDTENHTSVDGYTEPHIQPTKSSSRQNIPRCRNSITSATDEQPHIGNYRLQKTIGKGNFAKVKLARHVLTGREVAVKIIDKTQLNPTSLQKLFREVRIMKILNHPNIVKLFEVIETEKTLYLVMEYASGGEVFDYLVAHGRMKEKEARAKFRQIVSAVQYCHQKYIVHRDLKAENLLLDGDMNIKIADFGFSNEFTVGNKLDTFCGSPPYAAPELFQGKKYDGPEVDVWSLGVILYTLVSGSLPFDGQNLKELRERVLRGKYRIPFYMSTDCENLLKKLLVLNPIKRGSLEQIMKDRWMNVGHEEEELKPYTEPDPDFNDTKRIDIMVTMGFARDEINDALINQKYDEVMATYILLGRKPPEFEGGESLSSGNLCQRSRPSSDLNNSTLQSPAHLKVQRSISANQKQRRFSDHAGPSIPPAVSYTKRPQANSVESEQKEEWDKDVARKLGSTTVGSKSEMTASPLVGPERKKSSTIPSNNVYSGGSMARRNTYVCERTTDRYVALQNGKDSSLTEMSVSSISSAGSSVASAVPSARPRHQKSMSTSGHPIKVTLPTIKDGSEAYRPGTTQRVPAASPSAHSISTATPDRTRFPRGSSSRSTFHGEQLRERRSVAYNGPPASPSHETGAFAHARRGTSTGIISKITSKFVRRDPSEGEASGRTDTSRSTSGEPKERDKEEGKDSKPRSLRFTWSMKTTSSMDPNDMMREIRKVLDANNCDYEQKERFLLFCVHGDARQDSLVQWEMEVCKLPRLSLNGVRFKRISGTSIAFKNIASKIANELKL"}, "LCK (mouse)": {"test_system": "LCK (mouse)", "details": "accession and sequence are those of the human protein"}, "RIPK2 (human)": {"molecular_target": "RIPK2 (human) (UniProt O43353)"}, "MAP3K1 (human)": {"molecular_target": "MAP3K1 (human) (UniProt Q13233)"}, "FLT1 (human)": {"molecular_target": "FLT1 (human) (UniProt P17948)"}, "MINK1 (human)": {"molecular_target": "MINK1 (human) (UniProt Q8N4C8)"}, "CLK2 (human)": {"molecular_target": "CLK2 (human) (UniProt P49760)"}, "[2]": {"test_system": "AKT2 (human), P31751 [S474D]", "sequence (P31751 whole entry S474D, looked up)": "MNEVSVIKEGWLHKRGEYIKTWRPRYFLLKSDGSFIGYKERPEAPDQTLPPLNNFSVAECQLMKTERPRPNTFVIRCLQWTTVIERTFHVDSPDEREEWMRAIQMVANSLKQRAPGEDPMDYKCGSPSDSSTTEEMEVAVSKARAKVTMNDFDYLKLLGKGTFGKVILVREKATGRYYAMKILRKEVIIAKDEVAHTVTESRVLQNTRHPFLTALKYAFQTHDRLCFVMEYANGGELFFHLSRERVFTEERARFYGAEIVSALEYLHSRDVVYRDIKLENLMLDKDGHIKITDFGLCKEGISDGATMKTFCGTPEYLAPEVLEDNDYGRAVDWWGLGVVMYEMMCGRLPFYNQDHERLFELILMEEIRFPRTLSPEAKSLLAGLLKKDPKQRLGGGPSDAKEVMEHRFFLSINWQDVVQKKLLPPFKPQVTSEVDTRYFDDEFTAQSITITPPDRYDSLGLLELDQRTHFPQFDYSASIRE"}, "EPHA2 (human)": {"molecular_target": "EPHA2 (human) (UniProt P29317)"}, "GSK3B (human)": {"molecular_target": "GSK3B (human) (UniProt P49841)"}, "CSK (human)": {"molecular_target": "CSK (human) (UniProt P41240)"}, "MAPKAPK5 (human)": {"molecular_target": "MAPKAPK5 (human) (UniProt Q8IW41)"}, "PRKCZ (human)": {"molecular_target": "PRKCZ (human) (UniProt Q05513)"}, "MAPK11 (human)": {"molecular_target": "MAPK11 (human) (UniProt Q15759)", "sequence (Q15759 whole entry, looked up)": "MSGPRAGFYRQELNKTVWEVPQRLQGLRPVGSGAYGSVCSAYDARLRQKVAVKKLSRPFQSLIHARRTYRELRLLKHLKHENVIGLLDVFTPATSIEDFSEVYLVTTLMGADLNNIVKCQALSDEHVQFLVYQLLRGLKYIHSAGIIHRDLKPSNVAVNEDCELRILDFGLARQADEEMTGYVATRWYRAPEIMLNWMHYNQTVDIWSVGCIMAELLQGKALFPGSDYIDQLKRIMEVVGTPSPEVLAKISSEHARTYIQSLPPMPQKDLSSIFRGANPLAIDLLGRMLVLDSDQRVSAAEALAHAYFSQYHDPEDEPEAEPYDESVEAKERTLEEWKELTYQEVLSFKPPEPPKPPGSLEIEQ"}, "HIPK1 (human)": {"molecular_target": "HIPK1 (human) (UniProt Q86Z02)", "sequence (Q86Z02 whole entry, looked up)": "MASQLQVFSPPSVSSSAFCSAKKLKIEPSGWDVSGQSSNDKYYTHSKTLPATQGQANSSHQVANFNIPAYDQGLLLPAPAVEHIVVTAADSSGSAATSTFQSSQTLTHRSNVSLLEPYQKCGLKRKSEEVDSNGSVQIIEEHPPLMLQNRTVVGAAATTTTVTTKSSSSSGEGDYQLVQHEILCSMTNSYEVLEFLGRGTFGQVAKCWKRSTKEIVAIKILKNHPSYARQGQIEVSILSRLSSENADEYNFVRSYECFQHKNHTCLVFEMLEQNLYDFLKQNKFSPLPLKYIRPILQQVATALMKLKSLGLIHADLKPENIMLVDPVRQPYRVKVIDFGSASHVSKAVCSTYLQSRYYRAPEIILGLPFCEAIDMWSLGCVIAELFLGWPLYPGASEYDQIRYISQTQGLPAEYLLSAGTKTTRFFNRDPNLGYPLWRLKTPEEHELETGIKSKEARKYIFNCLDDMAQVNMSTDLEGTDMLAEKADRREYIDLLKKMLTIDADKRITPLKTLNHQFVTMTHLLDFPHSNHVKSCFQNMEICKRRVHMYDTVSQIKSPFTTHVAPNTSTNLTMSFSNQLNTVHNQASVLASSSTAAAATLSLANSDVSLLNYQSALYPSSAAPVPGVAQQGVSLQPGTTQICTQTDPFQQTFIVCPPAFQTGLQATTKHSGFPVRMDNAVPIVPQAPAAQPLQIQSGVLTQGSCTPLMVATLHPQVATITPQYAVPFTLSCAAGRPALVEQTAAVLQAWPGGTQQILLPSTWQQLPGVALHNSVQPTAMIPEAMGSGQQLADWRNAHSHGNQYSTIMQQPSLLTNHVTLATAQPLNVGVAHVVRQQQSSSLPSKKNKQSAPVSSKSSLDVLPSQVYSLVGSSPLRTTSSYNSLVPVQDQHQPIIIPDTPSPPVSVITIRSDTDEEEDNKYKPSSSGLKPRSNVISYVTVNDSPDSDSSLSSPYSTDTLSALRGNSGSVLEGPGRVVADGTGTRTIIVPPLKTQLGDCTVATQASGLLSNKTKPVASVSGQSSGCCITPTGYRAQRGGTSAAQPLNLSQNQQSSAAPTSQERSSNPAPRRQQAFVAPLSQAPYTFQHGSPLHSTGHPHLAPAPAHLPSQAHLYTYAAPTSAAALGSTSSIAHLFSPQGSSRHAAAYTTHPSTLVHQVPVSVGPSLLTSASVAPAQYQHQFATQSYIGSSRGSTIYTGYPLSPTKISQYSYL"}, "HIPK3 (human)": {"molecular_target": "HIPK3 (human) (UniProt Q9H422)", "sequence (Q9H422 whole entry, looked up)": "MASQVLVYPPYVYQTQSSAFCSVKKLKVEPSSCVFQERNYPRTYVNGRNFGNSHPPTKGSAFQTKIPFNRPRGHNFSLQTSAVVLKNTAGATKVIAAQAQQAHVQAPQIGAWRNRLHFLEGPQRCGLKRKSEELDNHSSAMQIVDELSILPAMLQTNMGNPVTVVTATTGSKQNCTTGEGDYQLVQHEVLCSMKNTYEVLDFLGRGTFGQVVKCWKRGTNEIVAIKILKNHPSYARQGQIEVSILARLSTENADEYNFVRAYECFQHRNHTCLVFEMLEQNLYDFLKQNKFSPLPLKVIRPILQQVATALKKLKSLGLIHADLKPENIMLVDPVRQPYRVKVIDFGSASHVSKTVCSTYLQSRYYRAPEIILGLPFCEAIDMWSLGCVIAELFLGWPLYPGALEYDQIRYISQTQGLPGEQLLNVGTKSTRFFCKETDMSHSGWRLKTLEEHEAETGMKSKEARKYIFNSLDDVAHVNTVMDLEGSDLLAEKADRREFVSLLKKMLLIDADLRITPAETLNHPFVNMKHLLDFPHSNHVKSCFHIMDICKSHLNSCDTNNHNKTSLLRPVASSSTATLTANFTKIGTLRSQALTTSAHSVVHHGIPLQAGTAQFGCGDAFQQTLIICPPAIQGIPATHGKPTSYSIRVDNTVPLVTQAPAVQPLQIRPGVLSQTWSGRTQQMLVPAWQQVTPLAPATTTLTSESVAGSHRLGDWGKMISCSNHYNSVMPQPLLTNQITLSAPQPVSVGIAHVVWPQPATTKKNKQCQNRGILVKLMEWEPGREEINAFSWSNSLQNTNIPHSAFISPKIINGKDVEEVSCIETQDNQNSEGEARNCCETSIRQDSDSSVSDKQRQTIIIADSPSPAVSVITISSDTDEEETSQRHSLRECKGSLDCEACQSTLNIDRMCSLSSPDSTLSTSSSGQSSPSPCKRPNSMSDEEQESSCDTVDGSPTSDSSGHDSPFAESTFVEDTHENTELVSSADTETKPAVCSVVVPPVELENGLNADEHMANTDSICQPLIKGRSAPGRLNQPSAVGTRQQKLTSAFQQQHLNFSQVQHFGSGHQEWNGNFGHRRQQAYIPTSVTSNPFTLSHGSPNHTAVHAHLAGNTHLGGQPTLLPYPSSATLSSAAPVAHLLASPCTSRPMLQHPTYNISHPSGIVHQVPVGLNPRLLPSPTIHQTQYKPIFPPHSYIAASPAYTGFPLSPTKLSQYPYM"}, "ROCK2 (rat)": {"test_system": "ROCK2 (rat)", "details": "accession and sequence are those of the human protein"}, "DYRK3 (human)": {"molecular_target": "DYRK3 (human) (UniProt O43781)"}, "MAP3K7 TAB1 (human)": {"molecular_target": "MAP3K7 TAB1 (human) (UniProt Q15750+O43318)"}}, "data": [{"molecule": "NC(=O)c1ccc(-c2ccc(Oc3cncc4sc(-c5nn[nH]n5)cc34)cc2)cc1", "values": [{"measurement": "residual activity", "setting": "JAK2 JH1 JH2 (human); compound 1.0 µM", "result": 97, "unit": "%"}, {"measurement": "residual activity", "setting": "JAK2 JH1 JH2 (human); compound 10.0 µM", "result": 74, "unit": "%"}, {"measurement": "residual activity", "setting": "SRC (human); compound 1.0 µM", "result": 85, "unit": "%"}, {"measurement": "residual activity", "setting": "SRC (human); compound 10.0 µM", "result": 92, "unit": "%"}, {"measurement": "residual activity", "setting": "[1]; compound 1.0 µM", "result": 80, "unit": "%"}, {"measurement": "residual activity", "setting": "[1]; compound 10.0 µM", "result": 59, "unit": "%"}, {"measurement": "residual activity", "setting": "INSR (human); compound 1.0 µM", "result": 111, "unit": "%"}, {"measurement": "residual activity", "setting": "INSR (human); compound 10.0 µM", "result": 108, "unit": "%"}, {"measurement": "residual activity", "setting": "CSNK1D (human); compound 1.0 µM", "result": 90, "unit": "%"}, {"measurement": "residual activity", "setting": "CSNK1D (human); compound 10.0 µM", "result": 59, "unit": "%"}, {"measurement": "residual activity", "setting": "IRAK4 (human); compound 1.0 µM", "result": 88, "unit": "%"}, {"measurement": "residual activity", "setting": "IRAK4 (human); compound 10.0 µM", "result": 74, "unit": "%"}, {"measurement": "residual activity", "setting": "MAPK14 (human); compound 1.0 µM", "result": 106, "unit": "%"}, {"measurement": "residual activity", "setting": "MAPK14 (human); compound 10.0 µM", "result": 98, "unit": "%"}, {"measurement": "residual activity", "setting": "MAPK15 (human); compound 1.0 µM", "result": 85, "unit": "%"}, {"measurement": "residual activity", "setting": "MAPK15 (human); compound 10.0 µM", "result": 2, "unit": "%"}, {"measurement": "residual activity", "setting": "MELK (human); compound 1.0 µM", "result": 77, "unit": "%"}, {"measurement": "residual activity", "setting": "MELK (human); compound 10.0 µM", "result": 62, "unit": "%"}, {"measurement": "residual activity", "setting": "IGF1R (human); compound 1.0 µM", "result": 107, "unit": "%"}, {"measurement": "residual activity", "setting": "IGF1R (human); compound 10.0 µM", "result": 95, "unit": "%"}, {"measurement": "residual activity", "setting": "TAOK1 (human); compound 1.0 µM", "result": 82, "unit": "%"}, {"measurement": "residual activity", "setting": "TAOK1 (human); compound 10.0 µM", "result": 36, "unit": "%"}, {"measurement": "residual activity", "setting": "FGFR1 (human); compound 1.0 µM", "result": 105, "unit": "%"}, {"measurement": "residual activity", "setting": "FGFR1 (human); compound 10.0 µM", "result": 61, "unit": "%"}, {"measurement": "residual activity", "setting": "RPS6KA3 KD1 KD2 (human); compound 1.0 µM", "result": 77, "unit": "%"}, {"measurement": "residual activity", "setting": "RPS6KA3 KD1 KD2 (human); compound 10.0 µM", "result": 44, "unit": "%"}, {"measurement": "residual activity", "setting": "BRSK1 (human); compound 1.0 µM", "result": 110, "unit": "%"}, {"measurement": "residual activity", "setting": "BRSK1 (human); compound 10.0 µM", "result": 90, "unit": "%"}, {"measurement": "residual activity", "setting": "NTRK1 (human); compound 1.0 µM", "result": 83, "unit": "%"}, {"measurement": "residual activity", "setting": "NTRK1 (human); compound 10.0 µM", "result": 89, "unit": "%"}, {"measurement": "residual activity", "setting": "CAMKK2 (human); compound 1.0 µM", "result": 84, "unit": "%"}, {"measurement": "residual activity", "setting": "CAMKK2 (human); compound 10.0 µM", "result": 23, "unit": "%"}, {"measurement": "residual activity", "setting": "MARK1 (human); compound 1.0 µM", "result": 89, "unit": "%"}, {"measurement": "residual activity", "setting": "MARK1 (human); compound 10.0 µM", "result": 78, "unit": "%"}, {"measurement": "residual activity", "setting": "LCK (mouse); compound 1.0 µM", "result": 113, "unit": "%"}, {"measurement": "residual activity", "setting": "LCK (mouse); compound 10.0 µM", "result": 99, "unit": "%"}, {"measurement": "residual activity", "setting": "RIPK2 (human); compound 1.0 µM", "result": 94, "unit": "%"}, {"measurement": "residual activity", "setting": "RIPK2 (human); compound 10.0 µM", "result": 22, "unit": "%"}, {"measurement": "residual activity", "setting": "MAP3K1 (human); compound 1.0 µM", "result": 99, "unit": "%"}, {"measurement": "residual activity", "setting": "MAP3K1 (human); compound 10.0 µM", "result": 51, "unit": "%"}, {"measurement": "residual activity", "setting": "FLT1 (human); compound 1.0 µM", "result": 84, "unit": "%"}, {"measurement": "residual activity", "setting": "FLT1 (human); compound 10.0 µM", "result": 24, "unit": "%"}, {"measurement": "residual activity", "setting": "MINK1 (human); compound 1.0 µM", "result": 84, "unit": "%"}, {"measurement": "residual activity", "setting": "MINK1 (human); compound 10.0 µM", "result": 21, "unit": "%"}, {"measurement": "residual activity", "setting": "CLK2 (human); compound 1.0 µM", "result": 80, "unit": "%"}, {"measurement": "residual activity", "setting": "CLK2 (human); compound 10.0 µM", "result": 12, "unit": "%"}, {"measurement": "residual activity", "setting": "[2]; compound 1.0 µM", "result": 77, "unit": "%"}, {"measurement": "residual activity", "setting": "[2]; compound 10.0 µM", "result": 62, "unit": "%"}, {"measurement": "residual activity", "setting": "EPHA2 (human); compound 1.0 µM", "result": 94, "unit": "%"}, {"measurement": "residual activity", "setting": "EPHA2 (human); compound 10.0 µM", "result": 89, "unit": "%"}, {"measurement": "residual activity", "setting": "GSK3B (human); compound 1.0 µM", "result": 38, "unit": "%"}, {"measurement": "residual activity", "setting": "GSK3B (human); compound 10.0 µM", "result": 10, "unit": "%"}, {"measurement": "residual activity", "setting": "CSK (human); compound 1.0 µM", "result": 86, "unit": "%"}, {"measurement": "residual activity", "setting": "CSK (human); compound 10.0 µM", "result": 100, "unit": "%"}, {"measurement": "residual activity", "setting": "MAPKAPK5 (human); compound 1.0 µM", "result": 104, "unit": "%"}, {"measurement": "residual activity", "setting": "MAPKAPK5 (human); compound 10.0 µM", "result": 56, "unit": "%"}, {"measurement": "residual activity", "setting": "PRKCZ (human); compound 1.0 µM", "result": 100, "unit": "%"}, {"measurement": "residual activity", "setting": "PRKCZ (human); compound 10.0 µM", "result": 67, "unit": "%"}, {"measurement": "residual activity", "setting": "MAPK11 (human); compound 1.0 µM", "result": 97, "unit": "%"}, {"measurement": "residual activity", "setting": "MAPK11 (human); compound 10.0 µM", "result": 104, "unit": "%"}, {"measurement": "residual activity", "setting": "HIPK1 (human); compound 1.0 µM", "result": 104, "unit": "%"}, {"measurement": "residual activity", "setting": "HIPK1 (human); compound 10.0 µM", "result": 9, "unit": "%"}, {"measurement": "residual activity", "setting": "HIPK3 (human); compound 1.0 µM", "result": 96, "unit": "%"}, {"measurement": "residual activity", "setting": "HIPK3 (human); compound 10.0 µM", "result": 10, "unit": "%"}, {"measurement": "residual activity", "setting": "ROCK2 (rat); compound 1.0 µM", "result": 73, "unit": "%"}, {"measurement": "residual activity", "setting": "ROCK2 (rat); compound 10.0 µM", "result": 38, "unit": "%"}, {"measurement": "residual activity", "setting": "DYRK3 (human); compound 1.0 µM", "result": 15, "unit": "%"}, {"measurement": "residual activity", "setting": "DYRK3 (human); compound 10.0 µM", "result": 6, "unit": "%"}, {"measurement": "residual activity", "setting": "MAP3K7 TAB1 (human); compound 1.0 µM", "result": 82, "unit": "%"}, {"measurement": "residual activity", "setting": "MAP3K7 TAB1 (human); compound 10.0 µM", "result": 75, "unit": "%"}]}]}
